The text below walks through data of paper PMC8227162 (Molecules, 2021).

Series [1] has as its system MDA-MB-231 cells. The series can be described thus: SRB cytotoxicity assay, MDA-MB-231 cells. It is filed as cell-based. To be noted: Homo sapiens, 48 h incubation (Figure 3 legend: 72 h). As for the experimental part: (§1) MDA-MB-231, MDA-MB-468, 4T1, and MCF7 cell lines were purchased from American Type Culture Collection (ATCC) (Manassas, VA, USA). RPMI medium supplemented with 5% fetal bovine serum (FBS) was used to culture the cell lines while being maintained in a humidified atmosphere at 37 °C, 5% CO2.
(§2) Cytotoxicity was assessed after 48 h incubation using sulforhodamine B (SRB) assay as described previously. Cells were fixed using 10% trichloroacetic acid and stained with SRB. The cytotoxicity experiments were performed in triplicate (n = 3). The 50% growth inhibition (IC50) was then assessed by using SRB assay after 48 h incubation. Data are represented as the mean ± SD of three independent experiments of each cell line.

Series [2] has as its system MDA-MB-231, MDA-MB-468, 4T1, and MCF7 cells. The experiment in a line: SRB cytotoxicity assay, all four breast cancer cell lines. To be noted: over the four breast cancer cell lines; read-out: IC50 span over all treatments. Type of series: cell-based. As for the experimental part: as §1, §2
(In SRB staining, fixed cells bind dye roughly in proportion to their protein.)

Series [3] deals with murine bone marrow cells. Also on record: method as in PMID 12110316. To be noted: cited from earlier work.
Series [4] deals with MDA-MB-468 cells. The experiment in a line: SRB cytotoxicity assay, MDA-MB-468 cells. Type of series: cell-based. The conditions noted are these: Homo sapiens, 48 h incubation (Figure 3 legend: 72 h). On the procedure: as §1, §2
Series [5] relates to MCF7 cells. The series can be described thus: SRB cytotoxicity assay, MCF7 cells. It is filed as cell-based. To be noted: Homo sapiens, 48 h incubation (Figure 3 legend: 72 h). On the procedure:
as §1, §2

For series [6], the system named is 4T1 tumors. The experiment in a line: In vivo antitumor effects in 4T1 tumor-bearing Balb/c mice. To be noted: 3 mg/kg (TFA equivalent) IV, 9-day treatment. As for the experimental part:
Female Balb/c mice (6–12 weeks old, mean weight = 20–25 g) were supplied by the Laboratory Animal Care Facility of the Arabian Gulf University (AGU), Bahrain. […] All animal experiments were performed based on the rules and regulations of the Arabian Gulf University Animal Care Policy and approved by the Research and Ethics Committee, REC Approval No: G-E001-PI-12/16.
To propagate the tumor, female Balb/c mice (n = 3) were injected with one million 4T1 mammary carcinoma cells bilaterally (right and left side) on the flanks. The tumor was then collected and cut down into small pieces with an average size of 1–3 mm^3 in sterile PBS to sustain tumor viability. Following this, 5 mice of each group were shaved, anesthetized, and inoculated with one small piece of the 4T1 tumor tissue subcutaneously. […] The first day of drug administration was set as Day 0. Tumor volume was measured by a manual caliber, and the volume was estimated by using the formula:V (mm^3) = ((transverse section (W)^2 × longitudinal cross section (L))/2)
Tumor volumes were normalized by using the initial tumor volume and represented as the mean ± standard error of the mean (SEM). Additionally, the body weight of mice was measured every day and normalized daily for 9 days.

Series [7] concerns 4T1 cells. The series can be described thus: SRB cytotoxicity assay, 4T1 cells. It is filed as cell-based, murine. To be noted: Mus musculus, 48 h incubation (Figure 3 legend: 72 h). As for the experimental part:
as §1, §2

pIC50: −log10 of the molar value. “Also recorded” adds a separate entry of the source. Structures can show the parent of a compound that is named as a salt.

The term pIC50 denotes the negative decadic logarithm of the IC50, by convention in mol/L. For `COc1cc2cc(C(=O)N3CC(CCl)c4c3cc(O)c3ccoc43)[nH]c2c(OC)c1OC` (stereo not shown) [TFA, tafuramycin A], the pIC50 is 8.34 in series [1]; 7.69 to 8.34 in series [2]; 7.74 in series [4]; 8.34 in series [5]; 8.23 in series [7]. Further, in series [3], the “Toxicity against murine bone marrow cells” value is “only mild toxicity”. Further, the Body weight changes entry in series [6] is reported as “not associated with any statistically significant weight loss; also recorded: no significant weight loss”.
